The test system of test [1] is differentiated L6-myotubes. The test is described as follows: cAMP production relative to isoprenaline (Biological example 2 of WO 2019/053427). It is filed as cell-based. As to conditions: 0.25 h, compound at 10 μM, activity relative to isoproterenol at 10 μM. The essentials:
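Differentiated L6 myotubes stimulated 15 min with test compound or isoprenaline, each at final 1×10^−5 M, in HBSS with 1% BSA, 5 mM HEPES, 1 mM IBMX, pH 7.4. cAMP production by the compound expressed relative to that induced by the same concentration of isoprenaline.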

The subject of test [2] is differentiated L6-myotubes. The test is described as follows: Glucose uptake screen (Biological example 1 of WO 2019/053427). The test is classed as cell-based. As to conditions: compound at 10 μM, activity relative to isoproterenol at 10 μM; for Emax at 10 µM: read-out: Biological example 1 of WO 2019/053427 (GU). The gist of the method:
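Rat L6 myoblasts were differentiated into myotubes over 7 days in 2% FBS, then serum-starved overnight. Cells were stimulated with 1×10^−5 M compound plus β2 antagonist ICI-118551 for 1 h 40 min and re-dosed for 20 min in glucose-free medium. Uptake of 50 nM ^3H-2-deoxyglucose over 10 min was counted after NaOH lysis.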

Some results are limits rather than exact numbers.

In the case of `CO[C@H]1CC[C@H](C[C@H]2CC[C@H]([C@@H](O)c3cncc(F)c3)N2)CC1` [Compound 340, (S)-[(2R,5R)-5-{[(1r,4R)-4-methoxycyclohexyl]methyl}-2-pyrrolidinyl](5-fluoro-3-pyridyl)methanol], the Emax at 10 µM is below 25% in test [1] and 25 to 50% in test [2].
On the same counts, the results for `CC(C)(NC[C@H](O)c1cncc(F)c1)[C@H]1CC[C@H](O)CC1` [Compound 285, (R)-1-(5-fluoro-3-pyridyl)-2-{1-methyl-1-[(1r,4R)-4-hydroxycyclohexyl]ethyl-amino}-1-ethanol] are below 25% and 50 to 75%.
The matching figures for `CS(=O)(=O)N[C@H]1CC[C@H](C[C@@H]2CC[C@H]([C@@H](O)c3cccc(F)c3)N2)CC1` [Compound 505, (S)-[(2R,5S)-5-{[(1r,4S)-4-(mesylamino)cyclohexyl]methyl}-2-pyrrolidinyl](m-fluorophenyl)methanol]: below 25% and below 25%.
The matching figures for `CO[C@H]1CC[C@H](CCC(C)(C)NC[C@H](O)c2cccc(F)c2)CC1` [Compound 265, (R)-2-{1,1-dimethyl-3-[(1r,4S)-4-methoxycyclohexyl]propyl-amino}-1-(m-fluorophenyl)-1-ethanol]: below 25% and 50 to 75%.
As for `CCCC1(CCC)CC[C@H]([C@@H](O)c2cccc(F)c2)N1` [Compound 158, (S)-[(R)-5,5-dipropyl-2-pyrrolidinyl](m-fluorophenyl)methanol], the Emax at 10 µM in test [1] and in test [2] was below 25% throughout.
For `CC(C)(CC[C@H]1CC[C@@H](C(=O)O)CC1)NC[C@H](O)c1cncc(F)c1` [Compound 347, (1S,4s)-4-{3-[(R)-2-(5-fluoro-3-pyridyl)-2-hydroxyethylamino]-3-methylbutyl}cyclohexanecarboxylic acid], the Emax at 10 µM in test [1] is below 25%; in test [2], above 75%.
The matching figures for `CCCC12CCC([C@H](O)c3cccc(F)c3)(CC1)N2` [Compound 183, (R)-(m-fluorophenyl)(4-propyl-7-azabicyclo[2.2.1]hept-1-yl)methanol]: 25 to 50% and 50 to 75%.
On the same counts, the results for `CC1(C)C[C@H]([C@H](O)c2cccc(F)c2)N1` [Compound 198, (R)-[(R)-4,4-dimethyl-2-azetidinyl](m-fluorophenyl)methanol] are 25 to 50% and above 75%.
On the same counts, the results for `CCCCNCC(O)c1ccc(F)c(N)c1` (stereo not drawn) [Compound 44, 1-(3-amino-4-fluorophenyl)-2-(butylamino)-1-ethanol] are below 25% and 50 to 75%.
Regarding `CCC[C@H]1CCC[C@H]([C@H](O)c2ccc(F)c(F)c2)N1` [Compound 67, (R)-[(2R,6S)-6-propyl-2-piperidyl](3,4-difluorophenyl)methanol], the Emax at 10 µM in test [1] was below 25%; in test [2] it was 25 to 50%.
Consider `COc1ccc(C[C@@H]2CC[C@H]([C@@H](O)c3cccc(F)c3)N2)cc1` [Compound 372, (S)-{(2R,5S)-5-[(p-methoxyphenyl)methyl]-2-pyrrolidinyl}(m-fluorophenyl)methanol], for which the Emax at 10 µM in test [1] was below 25%; in test [2] it was above 75%.
The matching figures for `CO[C@H]1CC[C@@H](CCCNC[C@H](O)c2cccc(F)c2)CC1` [Compound 258, (R)-1-(m-fluorophenyl)-2-{3-[(1s,4R)-4-methoxycyclohexyl]propyl-amino}-1-ethanol]: 50 to 75% and above 75%.
Turning to `CC1(C)CC[C@H]([C@@H](O)c2cc(F)c(N)c(F)c2)N1` [Compound 236, (S)-[(R)-5,5-dimethyl-2-pyrrolidinyl](4-amino-3,5-difluorophenyl)methanol], the Emax at 10 µM in test [1] was 25 to 50%; in test [2], above 75%.
On the same counts, the results for `CC12CC(C1)[C@H]([C@H](O)c1cccc(Cl)c1)N2` [Compound 206, (R)-{(R)-1-methyl-2-azabicyclo[2.1.1]hex-3-yl}(m-chlorophenyl)methanol] are below 25% and above 75%.
Regarding `CCC[C@@H]1CC[C@H]([C@H](O)c2cncc(F)c2)N1` [Compound 160, (R)-[(2R,5R)-5-propyl-2-pyrrolidinyl](5-fluoro-3-pyridyl)methanol], the Emax at 10 µM in test [1] was below 25%. Further, the “Biological example 1 of WO 2019/053427 (GU)” value in test [2] was “+++ (more than 75% of that of isoproterenol at 10 μM)”.
As for `CC1(C)CCC[C@@H]([C@H](O)c2ccccc2F)N1` [Compound 193, (R)-[(S)-6,6-dimethyl-2-piperidyl](o-fluorophenyl)methanol], the figures for the Emax at 10 µM in test [1] and in test [2] were 25 to 50% and above 75%, respectively.
As for `CC12CCC([C@@H](O)c3cccc(Cl)c3)(CC1)N2` [Compound 196, (S)-(m-chlorophenyl)(4-methyl-7-azabicyclo[2.2.1]hept-1-yl)methanol], the Emax at 10 µM in test [1] was below 25%; in test [2], 25 to 50%.
The matching figures for `CCCC12CCC([C@@H](O)c3cccc(F)c3)(CC1)N2` [Compound 182, (S)-(m-fluorophenyl)(- propyl-7-azabicyclo[2.2.1]hept-1-yl)methanol]: below 25% and below 25%.
On the same counts, the results for `COc1ccc(C[C@@H]2CC[C@H]([C@H](O)c3cccc(F)c3)N2)cc1` [Compound 373, (R)-{(2R,5S)-5-[(p-methoxyphenyl)methyl]-2-pyrrolidinyl}(m-fluorophenyl)methanol] are 25 to 50% and above 75%.
On the same counts, the results for `O[C@@H](c1cccc(F)c1)C12CCC(CCc3ccc(OC(F)(F)F)cc3)(CC1)N2` [Compound 544, (S)-(m-fluorophenyl){4-[2-(p-trifluoromethoxyphenyl)ethyl]-7-azabicyclo[2.2.1]hept-1-yl}methanol] are below 25% and below 25%.
For `Cn1ccc([C@@H](O)CNC(C)(C)C)cc1=O` [Compound 98, 4-[(R)-2-(tert-butylamino)-1-hydroxyethyl]-1-methyl-2(1H)-pyridinone], the Emax at 10 µM was below 25% in test [1] and above 75% in test [2].
The matching figures for `CC(C)(C[C@H]1CC[C@H](NC(=O)C(F)(F)F)CC1)NC[C@H](O)c1cccc(F)c1` [Compound 433, N-[(1R,4r)-4-{2-[(R)-2-(m-fluorophenyl)-2-hydroxyethylamino]-2-methylpropyl}cyclohexyl]trifluoroacetamide]: 25 to 50% and above 75%.
Consider `CC(C)(C)NC[C@H](O)c1ccncc1F` [Compound 108, (R)-2-(tert-butylamino)-1-(3-fluoro-4-pyridyl)-1-ethanol], for which the figures for the Emax at 10 µM in test [1] and in test [2] were below 25% and 25 to 50%, respectively.
On the same counts, the results for `Oc1ccc(C(O)CNCCCC2CC2)cc1` (stereo not drawn) [Compound 30, 2-(3-cyclopropylpropylamino)-1-(p-hydroxyphenyl)-1-ethanol] are below 25% and above 75%.
On the same counts, the results for `CC(C)(NC[C@H](O)c1cncc(F)c1)[C@H]1CC[C@H](OCc2ccccc2)CC1` [Compound 281, (R)-1-(5-fluoro-3-pyridyl)-2-{1-methyl-1-[(1r,4R)-4-(benzyloxy)cyclohexyl]eth-ylamino}-1-ethanol] are below 25% and 50 to 75%.
The matching figures for `CCC[C@@H]1CCC[C@H]([C@H](O)c2cccc(F)c2)N1` [Compound 59, (R)-[(2R,6R)-6-propyl-2-piperidyl](m-fluorophenyl)methanol]: below 25% and 25 to 50%.
Turning to `CCCC(C)NCC(O)c1cc(Cl)c(N)c(C(F)(F)F)c1` (stereo not drawn) [Compound 33, 1-[4-amino-3-chloro-5-(trifluoromethyl)phenyl]-2-(1-methylbutylamino)-1-ethanol], the Emax at 10 µM is above 75% in test [1] and 50 to 75% in test [2].
With `COc1ccc(CCC23CCC([C@@H](O)c4cncc(F)c4)(CC2)N3)cc1` [Compound 541, (S)-(5-fluoro-3-pyridyl){4-[2-(p-methoxyphenyl)ethyl]-7-azabicyclo[2.2.1]hept-1-yl}methanol], the Emax at 10 µM in test [1] and in test [2] was below 25% throughout.
For the molecule `CO[C@H]1CCC[C@@H](C(C)(C)NC[C@H](O)c2cccc(F)c2)C1` [Compound 256], the Emax at 10 µM in test [1] is 25 to 50%; in test [2] it was above 75%.
On the same counts, the results for `CCOC(=O)CO[C@H]1CC[C@H](C(C)(C)NC[C@H](O)c2cccc(F)c2)CC1` [Compound 398, ethyl[(1R,4r)-4-{1-[(R)-2-(m-fluorophenyl)-2-hydroxyethylamino]-1-methylethyl}cycloehxyloxy]acetate] are below 25% and above 75%.
On the same counts, the results for `CCCCNC[C@H](O)c1cnc(N)s1` [Compound 75, (S)-1-(2-amino-1,3-thiazol-5-yl)-2-(butylamino)-1-ethanol] are below 25% and 25 to 50%.
The matching figures for `CC(C)(C[C@H]1CC[C@@H](N)CC1)NC[C@H](O)c1cccc(C#N)n1` [Compound 418, 6-[(S)-2-{1,1-dimethyl-2-[(1s,4R)-4-aminocyclohexyl]ethylamino}-1-hydroxyethyl]-2-pyridinecarbonitrile]: below 25% and 50 to 75%.
For the molecule `O[C@H](c1cccc(F)c1)C12CCC(CCc3cccnc3)(CC1)N2` [Compound 446, (R)-(m-fluorophenyl){4-[2-(3-pyridyl)ethyl]-7-azabicyclo[2.2.1]hept-1-yl}methanol], the Emax at 10 µM was 50 to 75% in test [1] and above 75% in test [2].

Values taken from patent publication US20260256751A1, “COMBINATION OF BETA-2-ADRENERGIC RECEPTOR AGONISTS AND GLP-1 RECEPTOR AGONISTS FOR USE IN TREATING HYPERGLYCAEMIA” (ATROGI AB, priority 2023, published 2026).
